Here are results for nine compounds from patent US20260138978A1, “POSITIVE ALLOSTERIC MODULATORS OF THE MUSCARINIC ACETYLCHOLINE RECEPTOR M1” (Vanderbilt University, priority 2022, published 2026).

Assay [1] addresses T1, human mAChRM1 (Homo sapiens, UniProt P11229).
T1 construct: host or cells: CHO-K1
T1 sequence (P11229 1-460): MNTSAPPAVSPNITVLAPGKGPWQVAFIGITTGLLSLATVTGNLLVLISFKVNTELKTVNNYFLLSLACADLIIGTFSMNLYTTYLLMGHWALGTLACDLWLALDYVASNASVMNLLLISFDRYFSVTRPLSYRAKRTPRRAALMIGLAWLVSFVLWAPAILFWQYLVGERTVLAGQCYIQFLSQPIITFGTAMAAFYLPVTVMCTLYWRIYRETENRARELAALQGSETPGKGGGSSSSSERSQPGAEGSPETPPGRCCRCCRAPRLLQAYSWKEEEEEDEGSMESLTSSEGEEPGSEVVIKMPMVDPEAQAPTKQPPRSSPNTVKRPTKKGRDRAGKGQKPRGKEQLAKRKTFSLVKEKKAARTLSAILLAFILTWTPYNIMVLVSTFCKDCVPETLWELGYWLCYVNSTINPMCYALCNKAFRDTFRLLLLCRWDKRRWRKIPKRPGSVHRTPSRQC
Description: mAChR M1 cell-based functional assay (calcium mobilization), positive allosteric modulator activity: increase in the EC20 acetylcholine response. The note with it: for PAM Activity Human M1 EC50 / EC50: increase in the EC20 acetylcholine response; for Emax: PAM mode; for EC50: read-out: PAM Activity Human M1 EC50. Summed up: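 CHO-K1 cells stably expressing human M1, loaded with Fluo-4 AM; calcium flux recorded on FDSS at 1 Hz over 300 s following compound addition. PAM activity is the concentration-dependent increase of an EC20 acetylcholine response; EC50 and Emax from four-parameter logistic fits of 11-point, 1:3 concentration series.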

Assay [2] addresses T1, human mAChRM1. As to the kind of experiment: mAChR M1 cell-based functional assay (calcium mobilization), agonist activity upon compound addition, Emax relative to acetylcholine maximum. The note with it: for Agonist Activity Human M1 EC50 / EC50: calcium mobilization upon compound addition; for Emax: relative to the maximum for acetylcholine. Summed up: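 CHO-K1 cells stably expressing human M1 were loaded with Fluo-4 AM for 50 min at 37 °C. Compound was added 4 s into a 300 s FDSS read at 1 Hz, over 11-point 1:3 dilution curves. Agonism was taken as a concentration-dependent rise in calcium fluorescence ratio, with Emax expressed relative to the acetylcholine maximum from four-parameter logistic fits.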

Consider `Cn1cc2cc(C(C)(C)O)cc(-c3cc(F)c(CN4Cc5ncccc5C4=O)c(F)c3)c2n1` [Compound 86, 6-(2,6-difluoro-4-(5-(2-hydroxypropan-2-yl)-2-methyl-2H-indazol-7-yl)benzyl)-6,7-dihydro-5H-pyrrolo[3,4-b]pyridin-5-one], for which, at human mAChRM1 [1], the “PAM Activity Human M1 EC50” value was “inactive”. Besides, on human mAChRM1 [2], the “Agonist Activity Human M1 EC50” value is “inactive”.

As a reminder, the Emax is the maximal effect, on the per cent scale that the assay sets. What is called EC50 is the midpoint of the concentration-response curve. Turning to `Cn1cc2c(-c3cc(Cl)c(CN4Cc5ncccc5C4=O)c(C4CC4)c3)ccc(C(C)(C)O)c2n1` [Compound 67, 6-(2-chloro-6-cyclopropyl-4-(7-(2-hydroxypropan-2-yl)-2-methyl-2H-indazol-4-yl)benzyl)-6,7-dihydro-5H-pyrrolo[3,4-b]pyridin-5-one], the results for the maximal response (Emax) on human mAChRM1 [1] and at human mAChRM1 [2] were 62% and 32%, respectively. For the same compound, the EC50 on human mAChRM1 [1] is 147 nM; on human mAChRM1 [2], 6100 nM.

Consider `Cc1cc(-c2cc(C(C)(C)O)c3cn(C)nc3c2)ccc1CN1Cc2ncccc2C1=O` [Compound 22, 6-(4-(4-(2-hydroxypropan-2-yl)-2-methyl-2H-indazol-6-yl)-2-methylbenzyl)-6,7-dihydro-5H-pyrrolo[3,4-b]pyridin-5-one], for which the “PAM Activity Human M1 EC50” value on human mAChRM1 [1] is “inactive”. Besides, the “Agonist Activity Human M1 EC50” value on human mAChRM1 [2] is “inactive”.

For the compound `Cn1cc2c(-c3cc(F)c(CN4Cc5ncccc5C4=O)c(F)c3)ccc(C3(O)COC3)c2n1` [Compound 89, 6-(2,6-Difluoro-4-(7-(3-hydroxyoxetan-3-yl)-2-methyl-2H-indazol-4-yl)benzyl)-6,7-dihydro-5H-pyrrolo[3,4-b]pyridin-5-one], the Emax on human mAChRM1 [1] was 82%; at human mAChRM1 [2] it was 11%. The EC50 amounted to 254 nM at human mAChRM1 [1] and 6840 nM at human mAChRM1 [2].

Take `Cn1cc2cc(-c3cc(F)c(CN4Cc5ncccc5C4=O)c(F)c3)cc(C(C)(C)O)c2n1` [Compound 33, 6-(2,6-difluoro-4-(7-(2-hydroxypropan-2-yl)-2-methyl-2H-indazol-5-yl)benzyl)-6,7-dihydro-5H-pyrrolo[3,4-b]pyridin-5-one]: the figures for the Emax on human mAChRM1 [1] and on human mAChRM1 [2] were 66% and 21%, respectively. Moreover, the EC50 on human mAChRM1 [1] was 297 nM; at human mAChRM1 [2], at least 10000 nM.

On to `Cn1cc2c(-c3ncc(CN4Cc5ncccc5C4=O)cn3)ccc(C(C)(C)O)c2n1` [Compound 111, 6-((2-(7-(2-hydroxypropan-2-yl)-2-methyl-2H-indazol-4-yl)pyrimidin-5-yl)methyl)-6,7-dihydro-5H-pyrrolo[3,4-b]pyridin-5-one], for which, on human mAChRM1 [1], the Emax worked out at 47% and the EC50 was at least 10000 nM. Moreover, on human mAChRM1 [2], the “Agonist Activity Human M1 EC50” value was “inactive”.

Take `[2H]C1([2H])c2ncccc2C(=O)N1Cc1c(F)cc(-c2ccc(C(C)(C)O)c3nn(C)cc23)cc1F` [Compound 142, 6-(2,6-Difluoro-4-(7-(2-hydroxypropan-2-yl)-2-methyl-2H-indazol-4-yl)benzyl)-6,7-dihydro-5H-pyrrolo[3,4-b]pyridin-5-one-7,7-d2]: the results for the Emax at human mAChRM1 [1] and on human mAChRM1 [2] were 87% and 31%, respectively. Moreover, the EC50 at human mAChRM1 [1] amounted to 119 nM; at human mAChRM1 [2] it was 4020 nM.

As to `Cn1ncc2c(-c3cc(F)c(CN4Cc5cccc(F)c5C4=O)c(F)c3)ccc(C(C)(C)O)c21` [Compound 157, 2-(2,6-difluoro-4-(7-(2-hydroxypropan-2-yl)-1-methyl-1H-indazol-4-yl)benzyl)-7-fluoroisoindolin-1-one], on human mAChRM1 [1], the Emax was 61% and the EC50 was at least 10000 nM. For the same compound, the “Agonist Activity Human M1 EC50” value on human mAChRM1 [2] was “inactive”.

As to `Cn1cc2c(-c3cc(F)c(CN4Cc5ncccc5C4=O)c(F)c3)ccc(C(C)(O)C(F)F)c2n1` (centres unmarked) [Compound 100, 6-(4-(7-(1,1-difluoro-2-hydroxypropan-2-yl)-2-methyl-2H-indazol-4-yl)-2,6-difluorobenzyl)-6,7-dihydro-5H-pyrrolo[3,4-b]pyridin-5-one], at human mAChRM1 [1], the maximal effect (Emax) was 88% and the EC50 was 211 nM. Moreover, the “Agonist Activity Human M1 EC50” value on human mAChRM1 [2] was “inactive”.
